Test results taken from PubChem BioAssay AID588774 (The Scripps Research Institute Molecular Screening Center, 2011).
The source made the active and inactive calls.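 Rule for the calls: active = target enzyme inhibited at least 50% at a set dose, and selective over every off-target enzyme by a set factor; inactive = weaker inhibition or too little selectivity.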

Experiments:
[1] = pPAFAH inhibition and serine hydrolase selectivity, SAR follow-up, selectivity assay for pPAFAH inhibitor project, biochemical, gel-based, FP-Rh fluorescence, complex proteome, SAR compounds (AID 588774); settings: gel-based competitive ABPP, at 10 µM;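 for inhibition: 0% = DMSO-only band intensity and 100% = blank gel background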
[2] = system: ABHD3; experiment: as above; settings: gel-based competitive ABPP, stronger effect = higher value
[3] = target: ABHD4 (UniProt Q8VD66); experiment: as above; settings: gel-based competitive ABPP, stronger effect = higher value
Chain of ABHD4 (Q8VD66 whole entry, looked up): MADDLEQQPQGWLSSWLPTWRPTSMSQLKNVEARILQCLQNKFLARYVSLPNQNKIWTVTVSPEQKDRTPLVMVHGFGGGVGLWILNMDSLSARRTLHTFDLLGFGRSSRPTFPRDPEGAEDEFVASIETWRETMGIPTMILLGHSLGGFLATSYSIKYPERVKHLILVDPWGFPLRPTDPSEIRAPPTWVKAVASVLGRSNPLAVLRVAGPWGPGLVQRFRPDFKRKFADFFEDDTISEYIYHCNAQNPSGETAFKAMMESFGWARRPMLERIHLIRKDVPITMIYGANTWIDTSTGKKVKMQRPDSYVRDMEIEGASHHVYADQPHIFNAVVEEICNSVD

[4] = system: ABHD6; experiment: as above; settings: gel-based competitive ABPP, stronger effect = higher value
[5] = system: FAAH; experiment: as above; settings: gel-based competitive ABPP, stronger effect = higher value
[6] = system: LYPLA1; experiment: as above; settings: gel-based competitive ABPP, stronger effect = higher value
[7] = system: LYPLA2; experiment: as above; settings: gel-based competitive ABPP, stronger effect = higher value
[8] = system: MW 30 kDa; experiment: as above; settings: gel-based competitive ABPP, at 1 µM, stronger effect = higher value
[9] = system: MW 32 kDa; experiment: as above; settings: gel-based competitive ABPP, at 1 µM, stronger effect = higher value
[10] = target: Monoglyceride lipase (Mus musculus) (UniProt O35678); experiment: as above; settings: gel-based competitive ABPP, MAGL, stronger effect = higher value
Chain of Monoglyceride lipase (Mus musculus) (O35678 whole entry, looked up): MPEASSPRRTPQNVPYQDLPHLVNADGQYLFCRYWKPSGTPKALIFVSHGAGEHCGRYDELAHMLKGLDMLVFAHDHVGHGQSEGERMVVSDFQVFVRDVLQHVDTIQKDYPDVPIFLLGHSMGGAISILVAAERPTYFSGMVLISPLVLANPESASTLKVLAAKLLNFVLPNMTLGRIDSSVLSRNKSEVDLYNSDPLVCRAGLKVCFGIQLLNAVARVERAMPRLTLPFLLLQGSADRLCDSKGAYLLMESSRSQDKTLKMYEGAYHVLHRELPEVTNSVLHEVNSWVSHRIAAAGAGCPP

[11] = target: Platelet-activating factor acetylhydrolase (Mus musculus) (UniProt Q60963); experiment: as above; settings: gel-based competitive ABPP, pPAFAH, stronger effect = higher value
Chain of Platelet-activating factor acetylhydrolase (Mus musculus) (Q60963 whole entry, looked up): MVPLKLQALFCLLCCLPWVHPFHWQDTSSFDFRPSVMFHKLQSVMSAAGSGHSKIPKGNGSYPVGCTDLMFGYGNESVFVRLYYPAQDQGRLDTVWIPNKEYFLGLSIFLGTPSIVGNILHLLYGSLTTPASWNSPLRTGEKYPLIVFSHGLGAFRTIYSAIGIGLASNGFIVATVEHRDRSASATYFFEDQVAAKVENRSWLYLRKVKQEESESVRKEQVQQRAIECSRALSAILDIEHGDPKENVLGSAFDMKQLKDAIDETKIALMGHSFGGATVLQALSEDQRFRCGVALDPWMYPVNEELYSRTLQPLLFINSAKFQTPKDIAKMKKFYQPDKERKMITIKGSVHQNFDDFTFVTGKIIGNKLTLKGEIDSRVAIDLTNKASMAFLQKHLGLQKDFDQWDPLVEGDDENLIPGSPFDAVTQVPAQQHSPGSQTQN

[12] = system: pPAFAH; experiment: as above; settings: gel-based competitive ABPP, anti-targets inhibited, at 10 µM

Compound | anti-target count ([1]; ABHD3, anti-targets inhibited) | anti-target count ([1]; ABHD4, anti-targets inhibited) | anti-target count ([1]; ABHD6, anti-targets inhibited) | anti-target count ([1]; FAAH, anti-targets inhibited) | anti-target count ([1]; LYPLA1, anti-targets inhibited) | anti-target count ([1]; LYPLA2, anti-targets inhibited) | anti-target count ([1]; MAGL, anti-targets inhibited) | inhibition ([2]; at 10 µM) | inhibition ([3]; at 10 µM) | inhibition ([4]; at 10 µM) | inhibition ([4]; inhibition, at 1 µM) [%] | inhibition ([5]; at 10 µM) | inhibition ([5]; inhibition, at 0.1 µM) [%] | inhibition ([5]; inhibition, at 1 µM) [%] | inhibition ([6]; at 10 µM) | inhibition ([7]; at 10 µM) | inhibition [8] [%] | inhibition ([10]; at 10 µM) | inhibition ([10]; inhibition, at 1 µM) [%] | inhibition ([11]; at 10 µM) [%] | other results
Cc1cc(N2CCN(C(=O)n3ncc(-c4ccc([N+](=O)[O-])cc4)n3)CC2)c2ccccc2n1 | 9 | 9 | 9 | 9 | 9 | 9 | 9 | 100% (inactive) | 100% (inactive) | 72% (inactive) | 59 | 87% (inactive) | 6 | 81 | 100% (inactive) | 100% (inactive) | 67 | 84% (inactive) | 68 | 99 | inhibition ([2]; inhibition, at 0.1 µM): 11%; inhibition ([2]; inhibition, at 1 µM): 94%; inhibition ([3]; inhibition, at 0.1 µM): 11%; inhibition ([3]; inhibition, at 1 µM): 94%; inhibition ([4]; inhibition, at 0.1 µM): 17%; inhibition ([6]; inhibition, at 0.1 µM): 5%; inhibition ([6]; inhibition, at 1 µM): 86%; inhibition ([7]; inhibition, at 1 µM): 58%; inhibition [9]: 59%; inhibition ([10]; inhibition, at 0.1 µM): 28%; inhibition ([11]; inhibition, at 0.1 µM): 97%; inhibition ([11]; inhibition, at 1 µM): 99%; anti-target count [12]: 9
O=C(Oc1noc2cc(Cl)ccc12)N1CCCCC1 | 2 | 2 | 2 | 2 | 2 | 2 | 2 | 0% (inactive) | 0% (inactive) | 46% (inactive) | 38 | 100% | 96 | 100 | 0% (inactive) | 0% (inactive) | 40 | 23% (inactive) | 13 | 100 | inhibition ([4]; inhibition, at 0.1 µM): 20%; inhibition ([11]; inhibition, at 0.1 µM): 82%; inhibition ([11]; inhibition, at 1 µM): 85%; anti-target count [12]: 2
Cc1cc(N2CCN(C(=O)n3ncc(-c4ccc(OC(F)(F)F)cc4)n3)CC2)c2ccccc2n1 | 9 | 9 | 9 | 9 | 9 | 9 | 9 | 100% | 100% | 74% (inactive) | 60 | 92% (inactive) | 38 | 91 | 100% (inactive) | 96% (inactive) | 44 | 53% (inactive) | 35 | 100 | inhibition ([2]; inhibition, at 0.1 µM): 75%; inhibition ([2]; inhibition, at 1 µM): 92%; inhibition ([3]; inhibition, at 0.1 µM): 75%; inhibition ([3]; inhibition, at 1 µM): 92%; inhibition ([4]; inhibition, at 0.1 µM): 22%; inhibition ([6]; inhibition, at 1 µM): 51%; inhibition ([7]; inhibition, at 1 µM): 39%; inhibition [9]: 43%; inhibition ([11]; inhibition, at 0.1 µM): 100%; inhibition ([11]; inhibition, at 1 µM): 100%; anti-target count [12]: 9

Continued, in another order:

anti-target count ([1]; ABHD3, anti-targets inhibited) | anti-target count ([1]; ABHD4, anti-targets inhibited) | anti-target count ([1]; ABHD6, anti-targets inhibited) | anti-target count ([1]; FAAH, anti-targets inhibited) | anti-target count ([1]; LYPLA1, anti-targets inhibited) | anti-target count ([1]; LYPLA2, anti-targets inhibited) | anti-target count ([1]; MAGL, anti-targets inhibited) | inhibition ([2]; at 10 µM) | inhibition ([3]; at 10 µM) | inhibition ([4]; at 10 µM) | inhibition ([4]; inhibition, at 1 µM) [%] | inhibition ([5]; at 10 µM) | inhibition ([5]; inhibition, at 0.1 µM) [%] | inhibition ([5]; inhibition, at 1 µM) [%] | inhibition ([6]; at 10 µM) | inhibition ([7]; at 10 µM) | inhibition [8] [%] | inhibition ([10]; at 10 µM) | inhibition ([10]; inhibition, at 1 µM) [%] | inhibition ([11]; at 10 µM) [%] | Compound | other results
8 | 8 | 8 | 8 | 8 | 8 | 8 | 100% | 100% | 61% (inactive) | 43 | 88% (inactive) | 29 | 74 | 84% (inactive) | 61% (inactive) | 36 | 40% (inactive) | 26 | 100 | Cc1cc(N2CCN(C(=O)n3ncc(-c4ccc(Cl)c(Cl)c4)n3)CC2)c2ccccc2n1 | inhibition ([2]; inhibition, at 0.1 µM): 69%; inhibition ([2]; inhibition, at 1 µM): 96%; inhibition ([3]; inhibition, at 0.1 µM): 69%; inhibition ([3]; inhibition, at 1 µM): 96%; inhibition ([4]; inhibition, at 0.1 µM): 13%; inhibition ([6]; inhibition, at 1 µM): 24%; inhibition ([7]; inhibition, at 1 µM): 18%; inhibition [9]: 12%; inhibition ([11]; inhibition, at 0.1 µM): 97%; inhibition ([11]; inhibition, at 1 µM): 98%; anti-target count [12]: 8
9 | 9 | 9 | 9 | 9 | 9 | 9 | 100% (inactive) | 100% (inactive) | 71% (inactive) | 54 | 83% | 63 | 82 | 96% (inactive) | 99% (inactive) | 51 | 58% (inactive) | 36 | 99 | Cc1cc(N2CCN(C(=O)n3ncc(-c4ccccc4)n3)CC2)c2ccccc2n1 | inhibition ([2]; inhibition, at 1 µM): 85%; inhibition ([3]; inhibition, at 1 µM): 85%; inhibition ([6]; inhibition, at 1 µM): 86%; inhibition ([7]; inhibition, at 1 µM): 55%; inhibition [9]: 43%; inhibition ([11]; inhibition, at 0.1 µM): 99%; inhibition ([11]; inhibition, at 1 µM): 99%; anti-target count [12]: 9
8 | 8 | 8 | 8 | 8 | 8 | 8 | 100% (inactive) | 100% (inactive) | 70% (inactive) | 58 | 86% | 60 | 83 | 92% (inactive) | 95% (inactive) | 50 | 45% (inactive) | 35 | 96 | COc1ccc(-c2cnn(C(=O)N3CCN(c4cc(C)nc5ccccc45)CC3)n2)cc1 | inhibition ([2]; inhibition, at 1 µM): 86%; inhibition ([3]; inhibition, at 1 µM): 86%; inhibition ([4]; inhibition, at 0.1 µM): 12%; inhibition ([6]; inhibition, at 0.1 µM): 4%; inhibition ([6]; inhibition, at 1 µM): 74%; inhibition ([7]; inhibition, at 1 µM): 56%; inhibition [9]: 52%; inhibition ([11]; inhibition, at 0.1 µM): 85%; inhibition ([11]; inhibition, at 1 µM): 88%; anti-target count [12]: 8
